Data: ChEMBL document CHEMBL4265936, “Pyrazolo[4,3-b]pyrimido[4,5-e][1,4]diazepine derivatives as new multi-targeted inhibitors of Aurora A/B and KDR” (Eur J Med Chem, 2018)

How the values were obtained:
Aurora kinase B = Aurora kinase B (Homo sapiens, UniProt Q96GD4); assay: Inhibition of Aurora B (unknown origin) using STK S2 as substrate after 30 mins by HTRF assay
[1] = molecular target: Vascular endothelial growth factor receptor 2 (Homo sapiens, UniProt P35968); assay: biochemical; format: cell-based, Sf21
Chain of Vascular endothelial growth factor receptor 2 (P35968 whole entry): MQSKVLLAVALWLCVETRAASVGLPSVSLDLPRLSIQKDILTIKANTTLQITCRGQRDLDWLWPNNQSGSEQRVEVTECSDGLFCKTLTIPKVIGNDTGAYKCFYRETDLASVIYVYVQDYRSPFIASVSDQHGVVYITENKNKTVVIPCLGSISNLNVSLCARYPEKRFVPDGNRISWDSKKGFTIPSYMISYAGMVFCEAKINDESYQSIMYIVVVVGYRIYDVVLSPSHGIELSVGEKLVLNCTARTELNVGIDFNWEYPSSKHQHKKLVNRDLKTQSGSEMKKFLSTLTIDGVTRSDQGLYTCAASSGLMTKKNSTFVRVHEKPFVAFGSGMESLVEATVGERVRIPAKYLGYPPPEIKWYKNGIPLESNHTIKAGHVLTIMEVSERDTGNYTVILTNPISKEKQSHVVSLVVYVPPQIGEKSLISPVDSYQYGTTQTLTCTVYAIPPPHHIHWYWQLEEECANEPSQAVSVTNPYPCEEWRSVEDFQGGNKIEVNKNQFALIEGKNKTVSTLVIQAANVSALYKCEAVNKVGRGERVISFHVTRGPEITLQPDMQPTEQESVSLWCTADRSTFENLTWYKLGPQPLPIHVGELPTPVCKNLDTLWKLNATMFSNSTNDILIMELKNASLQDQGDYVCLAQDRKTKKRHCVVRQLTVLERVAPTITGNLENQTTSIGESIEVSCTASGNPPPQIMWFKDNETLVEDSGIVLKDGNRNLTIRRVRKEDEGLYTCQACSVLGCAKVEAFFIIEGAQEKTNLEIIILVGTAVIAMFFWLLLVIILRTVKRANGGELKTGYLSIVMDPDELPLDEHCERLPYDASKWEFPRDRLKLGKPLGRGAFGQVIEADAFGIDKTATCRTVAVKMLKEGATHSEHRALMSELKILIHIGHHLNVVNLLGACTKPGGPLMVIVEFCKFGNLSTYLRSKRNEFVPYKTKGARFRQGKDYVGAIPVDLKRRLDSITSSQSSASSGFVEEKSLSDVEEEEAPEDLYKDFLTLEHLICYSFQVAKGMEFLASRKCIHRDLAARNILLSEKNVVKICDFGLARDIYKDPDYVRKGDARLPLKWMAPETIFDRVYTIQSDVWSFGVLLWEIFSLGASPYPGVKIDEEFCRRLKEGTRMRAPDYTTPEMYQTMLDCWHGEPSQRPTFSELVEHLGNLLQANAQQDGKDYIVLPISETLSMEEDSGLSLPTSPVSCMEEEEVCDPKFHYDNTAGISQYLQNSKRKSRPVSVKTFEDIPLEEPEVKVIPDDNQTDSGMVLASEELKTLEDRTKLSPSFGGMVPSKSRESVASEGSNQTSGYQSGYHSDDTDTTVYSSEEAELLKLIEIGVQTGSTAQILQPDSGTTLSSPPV
Description: Inhibition of recombinant human N-terminal His6-tagged KDR (790 to end residues) expressed in baculovirus infected Sf21 insect cells after 60 mins by ELISA

Aurora kinase A = molecular target: T1, Aurora kinase A (Homo sapiens, UniProt O14965); assay: Inhibition of Aurora A (unknown origin) using STK S2 as substrate after 40 mins by HTRF assay
T1 sequence (O14965 whole entry): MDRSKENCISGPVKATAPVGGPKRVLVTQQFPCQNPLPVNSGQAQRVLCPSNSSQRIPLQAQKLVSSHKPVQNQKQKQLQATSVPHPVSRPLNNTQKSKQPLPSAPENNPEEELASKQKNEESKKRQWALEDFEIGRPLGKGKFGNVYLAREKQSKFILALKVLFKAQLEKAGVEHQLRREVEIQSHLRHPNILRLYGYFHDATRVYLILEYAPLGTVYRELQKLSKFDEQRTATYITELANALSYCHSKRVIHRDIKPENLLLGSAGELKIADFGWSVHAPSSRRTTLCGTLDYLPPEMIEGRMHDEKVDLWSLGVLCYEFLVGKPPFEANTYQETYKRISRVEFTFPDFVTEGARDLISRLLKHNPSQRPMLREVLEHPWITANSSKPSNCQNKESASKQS

[2] = molecular target: Platelet-derived growth factor receptor beta (Homo sapiens) (UniProt P09619); assay: Inhibition of recombinant human PDGFRbeta at 1000 nM after 60 mins by ELISA relative to control
Chain of Platelet-derived growth factor receptor beta (Homo sapiens) (P09619 whole entry): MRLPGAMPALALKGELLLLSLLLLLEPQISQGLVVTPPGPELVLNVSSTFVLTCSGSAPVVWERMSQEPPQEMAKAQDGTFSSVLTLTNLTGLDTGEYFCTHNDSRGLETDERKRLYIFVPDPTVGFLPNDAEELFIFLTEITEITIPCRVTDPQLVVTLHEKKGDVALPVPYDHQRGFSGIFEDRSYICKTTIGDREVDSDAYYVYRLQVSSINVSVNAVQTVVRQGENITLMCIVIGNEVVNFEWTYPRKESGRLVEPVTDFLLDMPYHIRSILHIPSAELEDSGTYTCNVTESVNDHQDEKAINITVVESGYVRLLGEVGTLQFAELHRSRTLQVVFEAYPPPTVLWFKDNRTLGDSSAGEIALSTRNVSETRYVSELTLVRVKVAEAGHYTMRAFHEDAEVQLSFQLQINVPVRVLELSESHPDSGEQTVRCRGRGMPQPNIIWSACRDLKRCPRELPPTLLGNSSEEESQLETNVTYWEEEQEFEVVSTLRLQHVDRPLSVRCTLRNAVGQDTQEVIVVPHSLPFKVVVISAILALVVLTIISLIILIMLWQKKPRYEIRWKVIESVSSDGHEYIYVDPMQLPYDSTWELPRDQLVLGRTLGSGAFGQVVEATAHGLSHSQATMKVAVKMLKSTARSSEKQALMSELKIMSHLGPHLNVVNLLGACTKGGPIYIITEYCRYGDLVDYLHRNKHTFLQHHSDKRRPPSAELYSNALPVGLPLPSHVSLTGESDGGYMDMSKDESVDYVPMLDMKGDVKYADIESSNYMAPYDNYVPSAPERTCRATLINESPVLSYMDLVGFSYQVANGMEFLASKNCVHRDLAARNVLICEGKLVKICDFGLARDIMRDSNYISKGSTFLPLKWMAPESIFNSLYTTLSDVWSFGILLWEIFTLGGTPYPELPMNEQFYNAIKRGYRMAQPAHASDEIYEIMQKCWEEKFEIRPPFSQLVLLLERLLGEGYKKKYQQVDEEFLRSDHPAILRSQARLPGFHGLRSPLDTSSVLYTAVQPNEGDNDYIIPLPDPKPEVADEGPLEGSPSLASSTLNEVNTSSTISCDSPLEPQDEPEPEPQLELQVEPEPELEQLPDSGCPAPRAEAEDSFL

[3] = molecular target: Proto-oncogene tyrosine-protein kinase receptor Ret (Homo sapiens) (UniProt P07949); assay: Inhibition of recombinant human RET at 1000 nM after 60 mins by ELISA relative to control
Chain of Proto-oncogene tyrosine-protein kinase receptor Ret (Homo sapiens) (P07949 whole entry): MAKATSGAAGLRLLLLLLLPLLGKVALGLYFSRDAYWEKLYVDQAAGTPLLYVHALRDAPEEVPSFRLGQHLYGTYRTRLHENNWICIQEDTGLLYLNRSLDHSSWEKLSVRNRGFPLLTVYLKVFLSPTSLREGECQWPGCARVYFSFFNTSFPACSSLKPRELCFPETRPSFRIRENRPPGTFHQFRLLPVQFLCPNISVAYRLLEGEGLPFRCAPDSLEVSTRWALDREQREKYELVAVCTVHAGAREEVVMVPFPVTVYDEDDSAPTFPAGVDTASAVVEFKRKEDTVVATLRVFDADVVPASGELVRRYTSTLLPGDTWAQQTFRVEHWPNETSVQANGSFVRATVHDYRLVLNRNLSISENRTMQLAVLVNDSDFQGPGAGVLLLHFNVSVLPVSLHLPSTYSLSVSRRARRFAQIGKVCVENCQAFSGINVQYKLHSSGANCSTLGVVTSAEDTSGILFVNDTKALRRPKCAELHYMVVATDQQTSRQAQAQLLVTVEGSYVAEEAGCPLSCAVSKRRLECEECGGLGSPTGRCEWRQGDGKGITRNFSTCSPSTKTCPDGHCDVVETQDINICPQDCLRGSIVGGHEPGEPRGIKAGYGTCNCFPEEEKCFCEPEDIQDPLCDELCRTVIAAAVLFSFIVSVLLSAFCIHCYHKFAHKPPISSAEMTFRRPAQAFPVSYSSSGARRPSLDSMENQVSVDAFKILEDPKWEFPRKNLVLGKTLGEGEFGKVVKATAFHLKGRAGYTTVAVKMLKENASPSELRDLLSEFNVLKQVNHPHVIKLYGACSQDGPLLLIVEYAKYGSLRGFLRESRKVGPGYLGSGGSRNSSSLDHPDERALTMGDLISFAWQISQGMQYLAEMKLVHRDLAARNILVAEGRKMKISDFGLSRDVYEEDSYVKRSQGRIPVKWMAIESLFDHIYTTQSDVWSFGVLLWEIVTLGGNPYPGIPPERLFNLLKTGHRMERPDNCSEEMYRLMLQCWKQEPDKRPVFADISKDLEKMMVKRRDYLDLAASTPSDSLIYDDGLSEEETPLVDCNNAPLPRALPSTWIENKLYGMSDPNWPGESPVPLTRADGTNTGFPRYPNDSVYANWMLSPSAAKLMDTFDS

Chain of Aurora kinase B (Q96GD4 whole entry): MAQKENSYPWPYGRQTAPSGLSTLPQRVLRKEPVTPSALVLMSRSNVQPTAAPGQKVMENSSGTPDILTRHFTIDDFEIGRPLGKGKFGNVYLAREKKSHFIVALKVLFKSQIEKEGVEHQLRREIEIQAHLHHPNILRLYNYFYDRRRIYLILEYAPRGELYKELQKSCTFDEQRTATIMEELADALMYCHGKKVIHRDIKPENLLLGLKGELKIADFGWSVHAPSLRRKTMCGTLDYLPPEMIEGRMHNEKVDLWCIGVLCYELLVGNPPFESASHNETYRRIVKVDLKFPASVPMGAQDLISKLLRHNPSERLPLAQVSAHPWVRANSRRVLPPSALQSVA

SMILES: CSc1ncc2c(n1)Nc1n[nH]c(C)c1N=C2c1ccccc1C
- IC50 (Aurora kinase B): 610 nM
- IC50 [1]: 110 nM
- IC50 (Aurora kinase A): 75 nM

SMILES: CCN(CC)CCNC(=O)c1c(C)[nH]c(/C=C2\C(=O)Nc3ccc(F)cc32)c1C
- inhibition [2]: 75.7%
- inhibition [3]: 76.7%

SMILES: CSc1ncc2c(n1)Nc1n[nH]c(C)c1N=C2c1cccc(F)c1
- IC50 (Aurora kinase B): 611 nM
- IC50 [1]: 330 nM
- IC50 (Aurora kinase A): 167 nM

SMILES: COc1ccccc1C1=Nc2c(n[nH]c2C)Nc2nc(SC)ncc21
- IC50 (Aurora kinase B): 2320 nM
- IC50 [1]: 102 nM
- IC50 (Aurora kinase A): 191 nM

SMILES: CSc1ncc2c(n1)Nc1n[nH]c(C)c1N=C2c1ccccc1Cl
- IC50 (Aurora kinase B): 278 nM
- IC50 [1]: 83.7 nM
- IC50 (Aurora kinase A): 94 nM

SMILES: Cc1ccc(C2=Nc3c(n[nH]c3C)Nc3nc(NC(C)C)ncc32)cc1
- IC50 (Aurora kinase B): 54.1 nM
- IC50 [1]: 30.3 nM
- IC50 (Aurora kinase A): 63.1 nM

SMILES: CSc1ncc2c(n1)Nc1n[nH]c(C)c1N=C2c1ccccc1C(F)(F)F
- IC50 (Aurora kinase B): 307 nM
- IC50 [1]: 205 nM
- IC50 (Aurora kinase A): 128 nM

SMILES: Cc1ccc(C2=Nc3c(n[nH]c3C)Nc3nc(N4CCCCC4)ncc32)cc1
- IC50 (Aurora kinase B): 50.3 nM
- IC50 [1]: 30 nM
- IC50 (Aurora kinase A): 77.6 nM

SMILES: CSc1ncc2c(n1)Nc1n[nH]c(C)c1N=C2c1ccc(C)cc1
- IC50 (Aurora kinase B): 99.8 nM
- IC50 [1]: 157 nM
- IC50 (Aurora kinase A): 70.6 nM

SMILES: CNc1ncc2c(n1)Nc1n[nH]c(C)c1N=C2c1ccc(C)cc1
- IC50 (Aurora kinase B): 352 nM
- IC50 [1]: 199 nM
- IC50 (Aurora kinase A): 397 nM

SMILES: CSc1ncc2c(n1)Nc1n[nH]c(C)c1N=C2c1cccc(Cl)c1
- IC50 (Aurora kinase B): 1000 nM
- IC50 [1]: 141 nM
- IC50 (Aurora kinase A): 102 nM
